From US8153787B2 (priority 2005, dated 2012)
Converted amounts (≈) assume the structure as drawn. Where two headings read alike, the source gives them in different places.

How the values were obtained:
[1] = test system: herpes simplex virus type 2 (HSV-2); assay: microbe, parasite or virus in culture; assay type: cell-based; conditions: Human alphaherpesvirus 2, HEL, read-out: EC50 HSV-2 (G strain)
Orf virus (NZ2) [2] = assay type: cell-based
[3] = test system: Molluscum contagiosum virus (MCV) clinical isolates; assay: microbe, parasite or virus in culture; assay type: cell-based; conditions: Keratinocyte
Cowpox virus (Brighton) [4] = test system: Cowpox virus (Brighton); parameters: species or system mice; conditions: mouse, in vivo, sc
in vitro = conditions: African green monkey
Vaccinia Virus (WR) = assay type: in vivo, mice; conditions: after 20 days
Cowpox virus (Brighton) [5] = assay: microbe, parasite or virus in culture; assay type: cell-based
[6] = test system: Human Cytomegalovirus (HCMV); assay: microbe, parasite or virus in culture; assay type: cell-based
HSB-2 cells = conditions: human
[7] = Decomposition in aqueous solution (sym-triazine ring opening); assay type: physicochemical; conditions: in words
Text: The first step is a reversible opening of the sym-triazine ring to the N-formylguanidine derivative which can close back to the cyclic structure. This step occurs in presence of a trialkylammonium buffer, e.g. triethylammonium hydrogenocarbonate (TEAB), triethylammonium hydroxide or triethylammonium acetate. This hydrolytic reaction is slow and reaches equilibrium within several days. It is accompanied by loss of UV-absorption which allows to determine its course.
Though this reaction is generally controlled by acidobasic catalysis, it could be eventually speeded up (or slowed down) in vivo by the action of enzymes.
The reaction course was monitored by measurement of absorption maximum decrease in UV spectrum at λmax 245 nm. For each measurement 10 μl sample of reaction mixture was diluted with water to overall volume 3 ml and absorbance value at 245 nm determined. Equilibrium was reached when no more decrease of absorbance occurred. The reaction mixture was evaporated to dryness, coevaporated with water (5×3 ml) and then with methanol (2×3 ml). The residue in water (3 ml) was applied onto a column of Dowex 50 (Na^+ form, 20 ml) and the column eluted with water. UV absorbing eluate was evaporated and lyophilized to give 105 mg (92%) of a sodium salt of 3a as a colourless amorphous material.

Orf virus (NZ2) [8] = assay: microbe, parasite or virus in culture; assay type: cell-based

For `Nc1ncn(C[C@@H](CO)OCP(=O)(O)O)c(=O)n1` [Compound 3, (S)-1-[3-hydroxy-2-(Phosphonomethoxy)propyl]-5-azacytosine], the EC50 [1] was 0.54 µg/mL (≈ 1.93 µM), the “activity against Orf virus (NZ2) in PHKs” value (Orf virus (NZ2) [2]) was “significant activity” and the EC50 ([3]; read-out: EC50 MCV 06/02) was 0.4 µg/mL (≈ 1.43 µM). It also gave an EC50 ([3]; read-out: EC50 MCV 06/03) of 0.23 µg/mL (≈ 0.821 µM), an EC50 ([3]; read-out: EC50 MCV 06/04) of 0.4 µg/mL (≈ 1.43 µM) and an EC50 ([3]; read-out: EC50 MCV 06/06) of 1.26 µg/mL (≈ 4.5 µM). The “survival, Cowpox virus (Brighton) mice model” value (Cowpox virus (Brighton) [4]) was 100%, the CC50 (in vitro) was 129 µg/mL (≈ 460 µM) and the “survival, Vaccinia Virus (WR) mice model” value (Vaccinia Virus (WR)) was 100%. The “activity against Cowpox virus (Brighton) in HEL cells” value (Cowpox virus (Brighton) [5]) was “significant activity”, the EC50 (Cowpox virus (Brighton) [5]; Cowpox virus, HEL, read-out: EC50 Cowpox virus Brighton) was 4.72 µg/mL (≈ 16.8 µM) and the “activity against CMV (AD-169 and Davis) in HEL cells” value [6] was “significant activity”. For the same molecule, the EC50 ([6]; Human betaherpesvirus 5, AD169, HEL, read-out: EC50 HCMV AD-169 strain (HEL cells)) was 0.078 µg/mL (≈ 0.278 µM), the EC50 ([6]; Human betaherpesvirus 5, HEL, read-out: EC50 HCMV Davis strain (HEL cells)) was 0.054 µg/mL (≈ 0.193 µM) and the “Toxicity MCC (microscopy), HSB-2 cells” value (HSB-2 cells) was 16 µg/mL. For the same molecule, the “decomposition in aqueous solution” value [7] was “slow decomposition”, the “activity against Orf virus (NZ2) in HEL cells” value (Orf virus (NZ2) [8]) was “significant activity” and the EC50 (Orf virus (NZ2) [8]; Orf virus, HEL, read-out: EC50 Orf virus NZ2) was 0.15 µg/mL (≈ 0.535 µM).
